Reference: patent publication US4168206A, “Impregnated disk method for testing antifungal susceptibility” (Philadelphia College of Osteopathic Medicine, priority 1977, dated 1979)
Values after ≈ are worked out from the molar mass of the structure shown. Where two headings read alike, the source gives them in different places.

Tests used:
Type in all cases: cell-based
Candida albicans [1] = experiment: MIC by broth dilution method, Candida albicans; settings: Candida albicans
Excerpt: (§1) The preparation of the nutrient media, the antifungal agents and the fungi to be tested in the present invention are similar to those reported in S. Shadomy and A. Espinel-Ingroff, "Susceptibility Testing Of Antifungal Agents", Ch. 63, pp. 569-574 in E. H. Lennett, E. H. Spaulding, and J. P. Truant, Eds., Manual Of Clinical Microbiology, 2nd Ed., American Society for Microbiology, Washington, D.C. (1974). This publication describes the susceptibility testing of antifungal agents, namely, amphotericin B, nystatin and 5-fluoro-cytosine (5-FC), by the "broth dilution method" and the "semisolid agar dilution method". At pages 570-571, it is stated:
(§2) In 10 duplicate runs with each strain tested, the variation in minimum inhibitory concentration averaged ±0.05 μg/ml.
(§3) *Broth dilution method conducted in accordance with S. Shadomy and E.
(§4) Espinel-Ingroff, "Susceptibility Testing of Antifungal Agents", Ch. 63,
(§5) pp. 569-574 in E. H. Spaulding and J. P. Truant, Eds., Manual Of Clinical
(§6) Microbiology, 2nd Ed., American Society for Microbiology, Washington, […]

Candida albicans [2] = experiment: MIC by impregnated disk method, Candida albicans; settings: Candida albicans
Protocol: (§7) Stock solutions of the antifungal agents to be tested are preferably prepared by diluting the antifungal agents in the proper nutrient medium. It is presently preferred to prepare dilutions in 10 ml of the proper medium to give the following final concentrations when applied to the disks (all quantities in micrograms per milliliter): 0.05, 0.08, 0.09, 0.1; 0.1 increment increases to 0.9, 1.0; 0.5 increment increases to 10.0; and 12.0, 14.0, 20.0, 25.0 and 50.0. Disks have been prepared by placing 0.05 ml of the above dilutions of antifungal agent containing medium on 6.5 mm diameter disks in 0.01 or 0.02 ml increments. The impregnated disks are then allowed to dry at a temperature preferably below about 10° C. […] The disks may also be dried by a lyophilization or freeze drying process.
(§8) To perform the tests in accordance with the present inventions, disks impregnated with various concentrations of antifungal agent and nutrient medium and a control disk impregnated only with the corresponding nutrient medium are placed on the fungus to be tested which has been applied to the non-nutrient medium. The disks are the inoculated non-nutrient medium are then incubated at a suitable temperature for a sufficient time to promote growth of the fungus. Any temperature is suitable if it will promote growth of the fungus without adversely affecting the fungus or the activity of the antifungal agent or agents tested. The time of incubation can be determined by observing the extent of growth around the control disk. […] The zones of growth or inhibition around the disks were read at 6, 12, 24, 36 and 48 hours after the disks were placed on the tested fungus.
(§9) The minimum inhibitory concentration is defined as the lowest concentration of antifungal agent which inhibits visible growth. The disks containing concentrations of antifungal agents below the minimum inhibitory concentration show circumscribed growth of the fungus around the disk. Disks containing concentrations of antifungal agent at or above the minimum inhibitory concentration show no circumscribed growth.
(§10) Clinical isolates of various fungi listed in Table 1 were obtained from different patients diagnosed as having fungal infections. The fungal inocula were prepared by using a 24-48 hour cultures grown in yeast nitrogen base containing 1% glucose and 0.15% asparagine. After centrifuging, the supernatant was removed, the sedimented cells were washed twice with sterile distilled water and a cell suspension was adjusted to 80% transmission at 520 nm using a Beckman DB-GT grating spectrophotometer.
(§11) Sterile liquified 2% purified agar was placed in petri dishes and allowed to harden. The surface of the agar was inoculated with a sterile cotton swab saturated with a suspension of an organism. The uniformly swabbed plates were then allowed to dry.
(§12) Disks were prepared using the dilutions described above for amphotericin B, nystatin and 5-fluorocytosine. 0.05 ml of the dilutions of each antifungal agent diluted with the appropriate nutrient medium were pipetted on 6.5 mm diameter disks. The disks were dried at 4° C. after each application. Control disks were also prepared.
(§13) Several test disks and a control disk were placed in each petri dish containing the inoculated agar. The disks and petri dishes were then incubated at 29° C. and the minimum inhibitory concentration of the various concentrations of the antifungal agents were read at 6, 12, 24, 36 and 48 hours.
as §2

Candida tropicalis = experiment: Susceptibility to combination of antifungal agents on disks (Example 3)
Excerpt: The method of the present invention also may be used to test combinations of antifungal agents. In this method, more than one antifungal agent of known concentration is impregnated in each test disk.
Each disk is impregnated with a particular known concentration of at least one particular antifungal agent, except for the control disks. When the susceptibility of a fungus to combinations of antifungal agents is being tested, more than one antifungal agent is impregnated in each test disk.
The susceptibility of two other isolates to combinations of antifungal agents were tested by combining more than one antifungal agent on each test disk. A series of test disks were prepared containing various combinations of antifungal agents in various concentrations and were used in the method of the present invention. The results of this procedure are summarized in the following specific, non-limiting examples:
An isolate of Candida tropicalis was initially tested for amphotericin B susceptibility of 0.5 μg/ml. When a combination of amphotericin B and tetracycline were combined on the disks used in the testing procedure according to the present invention, effective inhibition of the isolate occurred using 0.05 μg/ml of amphotericin B and 0.2 μg/ml of tetracycline.

C. tropicalis [3] = experiment: MIC by broth dilution method, Candida tropicalis; settings: Candida tropicalis, read-out: Minimum Inhibitory Concentration, Broth
Excerpt: as §1, §2, §3, §4, §5, §6

Torulopsis glabrata [4] = experiment: MIC by impregnated disk method, Torulopsis glabrata; settings: Nakaseomyces glabratus, read-out: Minimum Inhibitory Concentration, Disk
Protocol: as §7, §8
(§14) The minimum inhibitory concentration is defined as the lowest concentration of antifungal agent which inhibits visible growth. […]
(§15) Several test disks and a control disk were placed in each petri dish containing the inoculated agar. The disks and petri dishes were then incubated at 29° C. and the minimum inhibitory concentration of the various concentrations of the antifungal agents were read at 6, 12, 24, 36 and 48 hours. […]

C. parapsilosis = experiment: MIC by broth dilution method, Candida parapsilosis; settings: Lodderomyces parapsilosis
Excerpt: as §1, §2, §3, §4, §5, §6

Trichosporon sp. = experiment: MIC by impregnated disk method, Trichosporon sp.; settings: Trichosporon, read-out: Minimum Inhibitory Concentration, Disk
Protocol: as §7, §8, §14, §15

Torulopsis glabrata [5] = experiment: MIC by broth dilution method, Torulopsis glabrata; settings: Nakaseomyces glabratus, read-out: Minimum Inhibitory Concentration, Broth
Excerpt: as §1, §2, §3, §4, §5, §6

C. tropicalis [6] = experiment: MIC by impregnated disk method, Candida tropicalis; settings: Candida tropicalis, read-out: Minimum Inhibitory Concentration, Disk
Protocol: as §7, §8, §14, §15

Cryptococcus neoformans = experiment: MIC by impregnated disk method, Cryptococcus neoformans; settings: Cryptococcus neoformans
Protocol: as §7, §8, §9, §10, §11, §12, §13, §2

C[C@@H]1[C@H](O)[C@@H](C)/C=C/C=C/C=C/C=C/C=C/C=C/C=C/[C@H](O[C@@H]2O[C@H](C)[C@@H](O)[C@H](N)[C@@H]2O)C[C@@H]2O[C@](O)(C[C@@H](O)C[C@@H](O)[C@H](O)CC[C@@H](O)C[C@@H](O)CC(=O)O[C@H]1C)C[C@H](O)[C@H]2C(=O)O [Amphotericin B, amphotericin B]
MIC (Candida albicans [1]; isolate 1, read-out: Minimum Inhibitory Concentration, Broth): 0.4 µg/mL (≈ 0.433 µM)
MIC (Candida albicans [1]; isolate 2, read-out: Minimum Inhibitory Concentration, Broth): 0.7 µg/mL (≈ 0.758 µM)
MIC (Candida albicans [1]; isolate 3, read-out: Minimum Inhibitory Concentration, Broth): 0.1 µg/mL (≈ 0.108 µM)
MIC (Candida albicans [1]; isolate 4, read-out: Minimum Inhibitory Concentration, Broth): 0.6 µg/mL (≈ 0.649 µM)
MIC (Candida albicans [1]; isolate 5, read-out: Minimum Inhibitory Concentration, Broth): 0.8 µg/mL (≈ 0.866 µM)
MIC (Candida albicans [1]; isolate 6, read-out: Minimum Inhibitory Concentration, Broth): 1.5 µg/mL (≈ 1.62 µM)
MIC (Candida albicans [2]; isolate 1, read-out: Minimum Inhibitory Concentration, Disk): 0.3 µg/mL (≈ 0.325 µM)
MIC (Candida albicans [2]; isolate 2, read-out: Minimum Inhibitory Concentration, Disk): 0.6 µg/mL (≈ 0.649 µM)
MIC (Candida albicans [2]; isolate 3, read-out: Minimum Inhibitory Concentration, Disk): 0.08 µg/mL (≈ 0.0866 µM)
MIC (Candida albicans [2]; isolate 4, read-out: Minimum Inhibitory Concentration, Disk): 0.6 µg/mL (≈ 0.649 µM)
MIC (Candida albicans [2]; isolate 5, read-out: Minimum Inhibitory Concentration, Disk): 0.9 µg/mL (≈ 0.974 µM)
MIC (Candida albicans [2]; isolate 6, read-out: Minimum Inhibitory Concentration, Disk): 1 µg/mL (≈ 1.08 µM)
MIC (Candida tropicalis; Candida tropicalis isolate, alone, initially tested, read-out: amphotericin B susceptibility): 0.5 µg/mL
effective inhibition of the isolate, concentration of amphotericin B (Candida tropicalis; in combination with tetracycline 0.2 μg/ml): 0.05 µg/mL
MIC (C. tropicalis [3]): 0.8 µg/mL (≈ 0.866 µM)
MIC (Torulopsis glabrata [4]): 0.2 µg/mL (≈ 0.216 µM)
MIC (C. parapsilosis; read-out: Minimum Inhibitory Concentration, Broth, C. parapsilosis isolate 1): 0.8 µg/mL (≈ 0.866 µM)
MIC (C. parapsilosis; read-out: Minimum Inhibitory Concentration, Broth, C. parapsilosis isolate 2): 0.6 µg/mL (≈ 0.649 µM)
MIC (Trichosporon sp.): 0.9 µg/mL (≈ 0.974 µM)
MIC (Torulopsis glabrata [5]): 0.3 µg/mL (≈ 0.325 µM)
MIC (C. tropicalis [6]): 0.7 µg/mL (≈ 0.758 µM)
MIC (Cryptococcus neoformans; read-out: Minimum Inhibitory Concentration, Disk, C. neoformans isolate 2): 0.2 µg/mL (≈ 0.216 µM)
MIC (Cryptococcus neoformans; read-out: Minimum Inhibitory Concentration, Disk, C. neoformans isolate 3): 0.5 µg/mL (≈ 0.541 µM)
MIC (Cryptococcus neoformans; read-out: Minimum Inhibitory Concentration, Disk, Cryptococcus neoformans isolate 1): 0.4 µg/mL (≈ 0.433 µM)
